Results published in ChEMBL document CHEMBL1201862, “PubChem BioAssay data set” (2004).
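All cell lines were grown in 96-well plates and treated with compound for 48 hours. Here, GI50 denotes the concentration required for 50% inhibition of growth.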 Calls of active or inactive are those of the source. Cut-off read from the data, not from the text of the source: active = GI50 up to about 1.1 µM and inactive = higher. Square brackets hold non-standard residues; d marks the D form. Peptide text beside a SMILES is read from it. * marks the point of attachment. Phe(4-NO2) = N[CH](Cc1ccc([N+](=O)[O-])cc1)C(=O)O; Boc = CC(C)(C)OC(=O)*

Tests used:
Assay in all cases: NCI-60 cell line screen, 48 h
HCT-15 = test system: HCT-15
MCF7 = test system: MCF7
IGROV-1 = test system: IGROV-1
SK-OV-3 = test system: SK-OV-3
LOX IMVI = test system: LOX IMVI
MDA-N = test system: MDA-N
OVCAR-5 = test system: OVCAR-5
RXF 393 = test system: RXF 393
KM12 = test system: KM12
K562 = test system: K562
M14 = test system: M14
ACHN = test system: ACHN
A549 = test system: A549
HL-60 = test system: HL-60
786-0 = test system: 786-0
COLO 205 = test system: COLO 205
HOP-62 = test system: HOP-62
NCI-H522 = test system: NCI-H522
SN12C = test system: SN12C
UACC-62 = test system: UACC-62

COC1/C=C\OC2(C)Oc3c(C)c(O)c4c(O)c(c(CN(C)C)c(O)c4c3C2=O)NC(=O)/C(C)=C\C=C/C(C)C(O)C(C)C(O)C(C)C(OC(C)=O)C1C (stereo not given)
GI50 (HCT-15): 44.2 µM
GI50 (MCF7): 17.9 µM (inactive)
GI50 (IGROV-1): 33.7 µM (inactive)
GI50 (SK-OV-3): > 100 µM (inactive)
GI50 (LOX IMVI): 17.6 µM (inactive)
GI50 (MDA-N): 30.6 µM (inactive)
GI50 (OVCAR-5): > 100 µM (inactive)
GI50 (RXF 393): 37.8 µM (inactive)
GI50 (KM12): 33.7 µM (inactive)
GI50 (K562): 22.6 µM (inactive)
GI50 (M14): 19.4 µM (inactive)
GI50 (ACHN): 61.9 µM (inactive)
GI50 (A549): 27.4 µM (inactive)
GI50 (HL-60): 18.5 µM (inactive)
GI50 (786-0): 27.4 µM (inactive)
GI50 (COLO 205): 17.5 µM (inactive)
GI50 (HOP-62): 55.1 µM (inactive)
GI50 (NCI-H522): 16.2 µM (inactive)
GI50 (SN12C): 25.9 µM (inactive)
GI50 (UACC-62): 18.3 µM (inactive)

O=C1c2ccccc2C(=O)N1c1ccc(OCCN2CCCCC2)cc1
GI50 (HCT-15): > 100 µM
GI50 (MCF7): > 100 µM (inactive)
GI50 (IGROV-1): > 100 µM (inactive)
GI50 (SK-OV-3): > 100 µM (inactive)
GI50 (LOX IMVI): > 100 µM (inactive)
GI50 (MDA-N): > 100 µM (inactive)
GI50 (OVCAR-5): > 100 µM (inactive)
GI50 (RXF 393): > 100 µM (inactive)
GI50 (KM12): > 100 µM (inactive)
GI50 (K562): > 100 µM (inactive)
GI50 (M14): > 100 µM (inactive)
GI50 (ACHN): > 100 µM (inactive)
GI50 (A549): > 100 µM (inactive)
GI50 (HL-60): > 100 µM (inactive)
GI50 (786-0): > 100 µM (inactive)
GI50 (COLO 205): > 100 µM (inactive)
GI50 (HOP-62): > 100 µM (inactive)
GI50 (NCI-H522): > 100 µM (inactive)
GI50 (SN12C): > 100 µM (inactive)
GI50 (UACC-62): > 100 µM (inactive)

N#CC(C#N)=Cc1c(O)ccc2ccccc12
GI50 (HCT-15): 14.1 µM
GI50 (MCF7): 10.1 µM (inactive)
GI50 (IGROV-1): 17.8 µM (inactive)
GI50 (SK-OV-3): 15.8 µM (inactive)
GI50 (LOX IMVI): 12.1 µM (inactive)
GI50 (MDA-N): 12.7 µM (inactive)
GI50 (OVCAR-5): 17 µM (inactive)
GI50 (RXF 393): 15.2 µM (inactive)
GI50 (KM12): 17.8 µM (inactive)
GI50 (K562): 4.05 µM (inactive)
GI50 (M14): 13.8 µM (inactive)
GI50 (ACHN): 10.4 µM (inactive)
GI50 (A549): 17.1 µM (inactive)
GI50 (HL-60): 2.99 µM (inactive)
GI50 (786-0): 13.3 µM (inactive)
GI50 (COLO 205): 15.2 µM (inactive)
GI50 (HOP-62): 20.6 µM (inactive)
GI50 (NCI-H522): 9.93 µM (inactive)
GI50 (SN12C): 13.6 µM (inactive)
GI50 (UACC-62): 12.9 µM (inactive)

CC(N/N=C(\S)N1CCCCCC1)c1cccnn1 (stereo not given)
GI50 (HCT-15): 0.386 µM
GI50 (MCF7): 0.258 µM (active)
GI50 (IGROV-1): 0.361 µM (active)
GI50 (SK-OV-3): 0.409 µM (active)
GI50 (LOX IMVI): 0.304 µM (active)
GI50 (MDA-N): 0.684 µM (active)
GI50 (OVCAR-5): 0.316 µM (active)
GI50 (RXF 393): 0.228 µM (active)
GI50 (KM12): 0.525 µM (active)
GI50 (K562): 0.2 µM (active)
GI50 (M14): 0.319 µM (active)
GI50 (ACHN): 0.294 µM (active)
GI50 (A549): 0.301 µM (active)
GI50 (HL-60): 0.114 µM (active)
GI50 (786-0): 0.394 µM (active)
GI50 (COLO 205): 0.146 µM (active)
GI50 (HOP-62): 0.374 µM (active)
GI50 (NCI-H522): 0.2 µM (active)
GI50 (SN12C): 0.484 µM (active)
GI50 (UACC-62): 0.264 µM (active)

COc1ccc(-c2cc(=O)c3c(O)cc(C)cc3o2)cc1OC
GI50 (HCT-15): > 100 µM
GI50 (MCF7): > 100 µM (inactive)
GI50 (IGROV-1): > 100 µM (inactive)
GI50 (SK-OV-3): > 100 µM (inactive)
GI50 (LOX IMVI): > 100 µM (inactive)
GI50 (MDA-N): > 100 µM (inactive)
GI50 (OVCAR-5): > 100 µM (inactive)
GI50 (RXF 393): > 100 µM (inactive)
GI50 (KM12): > 100 µM (inactive)
GI50 (K562): > 100 µM (inactive)
GI50 (M14): > 100 µM (inactive)
GI50 (ACHN): > 100 µM (inactive)
GI50 (A549): > 100 µM (inactive)
GI50 (HL-60): > 100 µM (inactive)
GI50 (786-0): > 100 µM (inactive)
GI50 (COLO 205): > 100 µM (inactive)
GI50 (HOP-62): > 100 µM (inactive)
GI50 (NCI-H522): > 100 µM (inactive)
GI50 (SN12C): > 100 µM (inactive)
GI50 (UACC-62): > 100 µM (inactive)

CNC(=O)CCC(NC(=O)OC(C)(C)C)C(=O)NC(Cc1ccc([N+](=O)[O-])cc1)C(=O)NCC(=O)NC (stereo not given) (Boc-Glu(NHMe)-[Phe(4-NO2)]-Gly-NHMe; configuration not given here)
GI50 (HCT-15): > 100 µM
GI50 (MCF7): > 100 µM (inactive)
GI50 (IGROV-1): > 100 µM (inactive)
GI50 (SK-OV-3): > 100 µM (inactive)
GI50 (LOX IMVI): > 100 µM (inactive)
GI50 (MDA-N): > 100 µM (inactive)
GI50 (OVCAR-5): > 100 µM (inactive)
GI50 (RXF 393): > 100 µM (inactive)
GI50 (KM12): > 100 µM (inactive)
GI50 (K562): > 100 µM (inactive)
GI50 (M14): > 100 µM (inactive)
GI50 (ACHN): > 100 µM (inactive)
GI50 (A549): > 100 µM (inactive)
GI50 (HL-60): > 100 µM (inactive)
GI50 (786-0): > 100 µM (inactive)
GI50 (COLO 205): > 100 µM (inactive)
GI50 (HOP-62): > 100 µM (inactive)
GI50 (NCI-H522): > 100 µM (inactive)
GI50 (SN12C): > 100 µM (inactive)
GI50 (UACC-62): > 100 µM (inactive)

NCCO/C=C/C(N)C(=O)O (stereo not given) [AMINOETHOXYVINYLGLYCINE]
GI50 (HCT-15): > 100 µM
GI50 (MCF7): > 100 µM (inactive)
GI50 (IGROV-1): > 100 µM (inactive)
GI50 (SK-OV-3): > 100 µM (inactive)
GI50 (LOX IMVI): > 100 µM (inactive)
GI50 (MDA-N): > 100 µM (inactive)
GI50 (OVCAR-5): > 100 µM (inactive)
GI50 (RXF 393): > 100 µM (inactive)
GI50 (KM12): > 100 µM (inactive)
GI50 (K562): > 100 µM (inactive)
GI50 (M14): > 100 µM (inactive)
GI50 (ACHN): > 100 µM (inactive)
GI50 (A549): > 100 µM (inactive)
GI50 (HL-60): > 100 µM (inactive)
GI50 (786-0): > 100 µM (inactive)
GI50 (COLO 205): > 100 µM (inactive)
GI50 (HOP-62): > 100 µM (inactive)
GI50 (NCI-H522): 10.1 µM (inactive)
GI50 (SN12C): > 100 µM (inactive)
GI50 (UACC-62): > 100 µM (inactive)
